Laboratory results reported in patent publication US5683895A, “9-deazaadenosine and its 5'-α-D-glycopyranoside isolated from the cyanobacterium Anabaena affinis strain VS-1” (priority 1995, dated 1997).
Converted amounts (≈) assume the structure as drawn.

Experiments:
[1] = test system: L1210 murine leukemia cells; assay: Cytotoxicity to L1210 murine leukemia cells; format: cell-based; conditions: Mus musculus
[2] = Lethal toxicity to the aquatic invertebrate Ceriodaphnia dubia (acute 48 hr and chronic 7 day); conditions: in vivo

SMILES | IC50 [1] | LC50 at 48 h [2] | LC50 at 168 h [2]
Nc1ncnc2c([C@@H]3O[C@H](CO)[C@@H](O)[C@H]3O)c[nH]c12 [Compound 2, 9-deazaadenosine] | 0.002 µg/mL (≈ 0.00751 µM) | 0.3 µg/mL (≈ 1.13 µM) | 0.1 µg/mL (≈ 0.376 µM)
Nc1ncnc2c([C@@H]3O[C@H](CO[C@H]4O[C@H](CO)[C@@H](O)[C@H](O)[C@H]4O)[C@@H](O)[C@H]3O)c[nH]c12 [Compound 1, 9-deazaadenosine 5'-α-D-glucopyranoside] | 0.01 µg/mL (≈ 0.0233 µM) | 0.5 µg/mL (≈ 1.17 µM) | 0.3 µg/mL (≈ 0.7 µM)
